Where two headings read alike, the source gives them in different places.
What was measured:
[1] = system: stable HCV 2a JFH-1 Rluc replicon cells (L31 present in NS5A); assay: Renilla luciferase HCV replicon reporter assay, genotype 2a JFH-1; format: cell-based; conditions: Hepatitis C virus
Method in brief: (§1)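 72 h compound exposure (3-fold dilutions from 10 mM DMSO stocks) of replicon cells: stable dicistronic RLuc 1a H77, 1b Con1, 2a JFH-1 (NS5A L31); J6-NS5A chimera in JFH-1 (M31), transient in Huh-Lunet or stable. Renilla luciferase read-out, non-linear regression → EC50. DMSO negative control.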

[2] = system: stable HCV 1a RLuc replicon cells (dicistronic genotype 1a H77 replicon); assay: Renilla luciferase HCV replicon reporter assay, genotype 1a; format: cell-based; conditions: Hepatitis C virus, 72 h, stable 1a H77 RLuc replicon cells
Method in brief: as §1

[3] = system: NS5A chimeric genotype 1b Con1 replicon with genotype 3a S52 strain NS5A gene; assay: Replicon assay, genotype 3a NS5A chimera; format: cell-based, HCV; conditions: Hepatitis C virus
[4] = system: stable HCV 1b RLuc replicon cells (dicistronic genotype 1b Con1 replicon); assay: Renilla luciferase HCV replicon reporter assay, genotype 1b; format: cell-based; conditions: Hepatitis C virus, 72 h, stable 1b Con1 RLuc replicon cells, 72 hours; read-out: 1b
Method in brief: as §1

[5] = system: NS5A chimeric genotype 1b Con1 replicon with genotype 4a ED43 strain NS5A gene; assay: Replicon assay, genotype 4a NS5A chimera; format: cell-based, HCV; conditions: Hepatitis C virus
[6] = system: NS5A chimeric genotype 2a JFH-1 replicon with genotype 2b MD2b-1 strain NS5A gene (M31 present); assay: Replicon assay, genotype 2b NS5A chimera; format: cell-based, HCV; conditions: Hepatitis C virus
Method in brief: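 EC50 was fitted by non-linear regression to Renilla luciferase signal after 72 h of exposure to 3-fold serially diluted compound (10 mM DMSO stocks). Controls were DMSO (none) and ITMN-191 above 100×EC50 (full). Chimeric 2a replicons were used either stable or transiently transfected into Huh-Lunet cells.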

[7] = system: NS5A chimeric genotype 2a JFH-1 replicon with genotype 2a J6 strain NS5A gene (M31 present); assay: Replicon assay, genotype 2a J6 NS5A chimera; format: cell-based, HCV; conditions: Hepatitis C virus
Method in brief: as §1

[8] = system: Q30R in genotype 1a NS5A (1a Pi-Rluc replicon, Huh-7-derived cured-51 cells); assay: Replicon assay against resistance mutant 1a Q30R; format: cell-based, HCV; conditions: Hepatitis C virus
Description: Antiviral potency (EC50) was determined using a Renilla luciferase (RLuc)-based HCV replicon reporter assay. To perform the assay for genotype 1 and 2a JFH-1, stable HCV 1a RLuc replicon cells (harboring a dicistronic genotype 1a H77 replicon that encodes a RLuc reporter), stable HCV 1b RLuc replicon cells (harboring a dicistronic genotype 1b Con1 replicon that encodes a RLuc reporter), or stable HCV 2a JFH-1 Rluc replicon cells (harboring a dicistronic genotype 2a JFH-1 replicon that encodes a RLuc reporter; with L31 present in NS5A) were dispensed into 384-well plates for EC50 assays. To perform the assay for genotype 2a (with M31 present in NS5A) or 2b, NS5A chimeric genotype 2a JFH-1 replicons that encodes a RLuc-Neo reporter and either genotype 2a J6 strain NS5A gene or genotype 2b MD2b-1 strain NS5A gene (both with M31 present) respectively, were either transiently transfected (t) into Huh-Lunet cells or were established as stably replicating replicon cells (s) is provided. Either cells were dispensed into 384-well plates for EC50 assays. To perform the assay for genotype 3 and 4, NS5A chimeric genotype 1b Con1 replicons that encodes a Pi-RLuc reporter and either genotype 3a S52 strain NS5A gene or genotype 4a ED43 strain NS5A gene respectively, were transiently transfected (t) into Huh-Lunet cells, which were subsequently dispensed into 384-well plates. Compounds were dissolved in DMSO at a concentration of 10 mM and diluted in DMSO either manually or using an automated pipeting instrument. Serially 3-fold diluted compounds were either manually mixed with cell culture media and added to the seeded cells or directly added to the cells using an automated instrument. DMSO was used as a negative (solvent; no inhibition) control, and the protease inhibitor ITMN-191 was included at a concentration>100×EC50 as a positive control. 72 hours later, cells were lysed and Renilla luciferase activity quantified as recommended by the manufacturer (Promega-Madison, Wis.). Non-linear regression was performed to calculate EC50 values.
To determine the antiviral potency (EC50) against resistance mutants, resistance mutations, including M28T, Q30R, Q30H, Q30E, L31M, Y93C, Y93H, and Y93N in genotype 1a NS5A, Y93H and L31V/Y93H in genotype 1b NS5A, and Y93H for in genotype 3a NS5A, were introduced individually into either 1a Pi-Rluc or 1b Pi-Rluc replicons by site directed mutagenesis. Replicon RNA of each resistant mutant was transiently transfected into Huh-7-derived cured-51 cells and antiviral potency was determined on these transfected cells as described above.

[9] = read-out: 2a JFH (nM), genotype 2a JFH-1 replicon (L31 in NS5A), stable cells
[10] = read-out: 2a JFH, stable 2a JFH-1 Rluc replicon cells, L31 in NS5A, activity range
[11] = read-out: 3a (s) (nM), genotype 3a NS5A chimeric replicon, stable replicon cells (s)
[12] = read-out: 3a (s), (s), activity range
[13] = read-out: 3a (t) (nM), genotype 3a NS5A chimeric replicon, transiently transfected (t)
[14] = read-out: 3a (t), transiently transfected (t) into Huh-Lunet cells, activity range
[15] = read-out: 4a (s) (nM), genotype 4a NS5A chimeric replicon, stable replicon cells (s)
[16] = read-out: 4a (s), (s), activity range
[17] = 2BS, read-out: 2b (s), stably replicating replicon cells (s), activity range
[18] = read-out: 2b (s) (nM), genotype 2b MD2b-1 NS5A chimeric replicon (M31), stably replicating replicon cells (s)
[19] = read-out: 2a J6 (t) (nM), genotype 2a J6 NS5A chimeric replicon (M31), transiently transfected (t) into Huh-Lunet cells
[20] = read-out: 2a J6 (t), transiently transfected (t) into Huh-Lunet cells, activity range

| Compound | EC50 [1, 9] [nM] | EC50 [1, 10] [nM] | EC50 [2] [nM] | EC50 ([2]; activity range) [nM] | EC50 [3, 11] [nM] | EC50 [3, 12] [nM] | EC50 [3, 13] [nM] | EC50 [3, 14] [nM] | EC50 [4] [nM] | EC50 [5, 15] [nM] | EC50 [5, 16] [nM] | EC50 [6, 17] [nM] | EC50 [6, 18] [nM] | EC50 [7, 19] [nM] | EC50 [7, 20] [nM] | EC50 ([8]; read-out: 1a Q30R) [nM] | EC50 ([8]; read-out: 1a Q30R (nM)) [nM] | EC50 ([6]; read-out: 2b (t) (nM), genotype 2b MD2b-1 NS5A chimeric replicon (M31), transiently transfected (t)) [nM] | EC50 ([6]; read-out: 2b (t), transiently transfected (t) into Huh-Lunet cells, activity range) [nM] |
| --- | --- | --- | --- | --- | --- | --- | --- | --- | --- | --- | --- | --- | --- | --- | --- | --- | --- | --- | --- |
| COC[C@H]1C[C@@H](c2ncc(-c3ccc4c(c3)COc3cc5c(ccc6nc([C@@H]7C[C@H](COC)CN7C(=O)[C@H](NC(=O)OC)c7ccccc7)[nH]c65)cc3-4)[nH]2)N(C(=O)[C@H](NC(=O)OC)c2ccccc2)C1 [EY, Methyl {(1R)-2-[(2S,4S)-2-(5-{2-[(2S,4S)-1-{(2R)-2-[(methoxycarbonyl)amino]-2-phenylacetyl}-4-(methoxymethyl)pyrrolidin-2-yl]-1,11-dihydroisochromeno[4′,3′:6,7]naphtho[1,2-d]imidazol-9-yl}-1H-imidazol-2-yl)-4-(methoxymethyl)pyrrolidin-1-yl]-2-oxo-1-phenylethyl}carbamate] | 0.029 | < 0.1 | 0.029 | < 0.1 | 0.087 | < 0.1 | 0.118 | 0.1 to 0.999 | 0.049 | 0.025 | < 0.1 | < 0.1 | 0.035 | 0.008 | < 0.1 | < 0.1 | 0.057 |  |  |
| COC(=O)N[C@H](C(=O)N1[C@@H](C)CC[C@H]1c1nc(C)c(-c2ccc3c(c2)COc2cc4c(ccc5nc([C@@H]6CC[C@H](C)N6C(=O)[C@@H](NC(=O)OC)[C@@H](C)OC)[nH]c54)cc2-3)[nH]1)[C@@H](C)OC [GD, Methyl [(2S,3R)-3-methoxy-1-{(2S,5S)-2-[9-(2-{(2S,5S)-1-[N-(methoxycarbonyl)-O-methyl-L-threonyl]-5-methylpyrrolidin-2-yl}-4-methyl-1H-imidazol-5-yl)-1,11-dihydroisochromeno[4′,3′:6,7]naphtho[1,2-d]imidazol-2-yl]-5-methylpyrrolidin-1-yl}-1-oxobutan-2-yl]carbamate] | 0.035 | < 0.1 | 0.019 | < 0.1 | 0.07 | < 0.1 | 0.042 | < 0.1 | 0.027 | 0.018 | < 0.1 | < 0.1 | 0.09 | 0.04 | < 0.1 | 0.1 to 0.999 | 0.105 |  |  |
| CC[C@H]1CC[C@@H](c2ncc(-c3ccc4c(c3)COc3cc5c(ccc6nc([C@@H]7CC[C@H](C)N7C(=O)[C@@H](NC(=O)OC)[C@@H](C)OC)[nH]c65)cc3-4)[nH]2)N1C(=O)[C@@H](NC(=O)OC)C1CCOCC1 [HY] | 0.015 | < 0.1 | 0.015 | < 0.1 | 0.052 | < 0.1 | 0.055 | < 0.1 | 0.028 | 0.017 | < 0.1 | < 0.1 | 0.049 | 0.026 | < 0.1 | < 0.1 | 0.046 | 0.031 | < 0.1 |
| COC[C@H](NC(=O)OC)C(=O)N1[C@@H](C)CC[C@H]1c1nc2ccc3cc4c(cc3c2[nH]1)OCc1cc(-c2cnc([C@@H]3CC[C@H](C)N3C(=O)[C@@H](NC(=O)OC)C(C)C)[nH]2)ccc1-4 [FE, Methyl [(2S)-1-{(2S,5S)-2-[5-(2-{(2S,5S)-1-[N-(methoxycarbonyl)-O-methyl-L-seryl]-5-methylpyrrolidin-2-yl}-1,11-dihydroisochromeno[4′,3′:6,7]naphtho[1,2-d]imidazol-9-yl)-1H-imidazol-2-yl]-5-methylpyrrolidin-1-yl}-3-methyl-1-oxobutan-2-yl]carbamate] | 0.016 | < 0.1 | 0.012 | < 0.1 | 0.072 | < 0.1 |  |  | 0.015 | 0.012 | < 0.1 | 0.1 to 0.999 | 0.463 | 0.122 | 0.1 to 0.999 | 0.1 to 0.999 | 0.253 |  |  |
| COC(=O)N[C@H](C(=O)N1[C@@H](C)CC[C@H]1c1nc(Cl)c(-c2ccc3c(c2)COc2cc4c(ccc5nc([C@@H]6CC[C@H](C)N6C(=O)[C@@H](NC(=O)OC)[C@@H](C)OC)[nH]c54)cc2-3)[nH]1)[C@@H](C)OC [GB, Methyl [(2S,3R)-1-{(2S,5S)-2-[9-(4-chloro-2-{(2S,5S)-1-[N-(methoxycarbonyl)-O-methyl-L-threonyl]-5-methylpyrrolidin-2-yl}-1H-imidazol-5-yl)-1,11-dihydroisochromeno[4′,3′:6,7]naphtho[1,2-d]imidazol-2-yl]-5-methylpyrrolidin-1-yl}-3-methoxy-1-oxobutan-2-yl]carbamate] | 0.011 | < 0.1 | 0.016 | < 0.1 | 0.029 | < 0.1 | 0.034 | < 0.1 | 0.019 | 0.007 | < 0.1 | < 0.1 | 0.089 | 0.023 | < 0.1 | < 0.1 | 0.075 |  |  |
| COC(=O)N[C@H](C(=O)N1[C@@H](C)CC[C@H]1c1ncc(-c2ccc3c(c2)COc2cc4c(ccc5nc([C@@H]6CC[C@H](C)N6C(=O)[C@@H](NC(=O)OC)[C@@H](C)OC(C)(C)C)[nH]c54)cc2-3)[nH]1)C(C)C [FG, Methyl {(2S,3R)-3-tert-butoxy-1-[(2S,5S)-2-(9-{2-[(2S,5S)-1-{(2S)-2-[(methoxycarbonyl)amino]-3-methylbutanoyl}-5-methylpyrrolidin-2-yl]-1H-imidazol-5-yl}-1,11-dihydroisochromeno[4′,3′:6,7]naphtho[1,2-d]imidazol-2-yl)-5-methylpyrrolidin-1-yl]-1-oxobutan-2-yl}carbamate] | 0.047 | < 0.1 | 0.024 | < 0.1 | 0.298 | 0.1 to 0.999 |  |  | 0.04 | 0.044 | < 0.1 | 1 to 44 | 1.53 | 1.45 | 1 to 44 | 0.1 to 0.999 | 0.577 |  |  |

Source: US10800789B2, “Antiviral compounds” (Gilead Pharmasset LLC, priority 2012, dated 2020)
